Measured values from patent publication US20220056018A1, “SREBP INHIBITORS COMPRISING A THIOPHENE CENTRAL RING” (Capulus Therapeutics, LLC, priority 2019, published 2022).

Tests used:
[1] = Stability in mouse liver microsomes; type: in vitro ADME
Procedure: (§1) Compounds were evaluated for stability in human liver microsomes. A 10 mM stock solution of the compound being evaluated was prepared in DMSO and diluted with water:acetonitrile (1:1) to a concentration of 1 mM. A working concentration of 100 μM was prepared by further dilution with water:acetonitrile (1:1). To make the preincubation mixture, 2.5 μL of the diluted compound was combined with 75 μL of human liver microsomes at 3.33 mg/mL, and 85 μL of 100 mM potassium phosphate buffer, and this mixture was pre-incubated for 10 min at 37° C. To make the 60 minute mixture without cofactor, 32.5 μL of the preincubation mixture was combined with 17.5 μL of 100 mM potassium phosphate buffer and incubated for 60 min at 37° C. To make the 0 min sample with cofactor (NADPH), 16.25 μL of the preincubation mixture was combined with 200 μL of acetonitrile containing internal standard and 8.75 μL of cofactor (NADPH). To make the incubation mixture, 62 μL of cofactor (2.85 mM) was combined with the remaining incubation mixture, and incubated for 60 min at 37° C. To prepare the sample mixture to be evaluated, 25 μL incubation mixture was combined with 200 μL of acetonitrile containing internal standard and vortexed for 5 min at 1200 rpm, then centrifuged for 10 min at 4000 rpm. The supernatant was diluted 2 fold with water and injected on LC-MS/MS. The sample mixture was evaluated by LC-MS/MS using 10 mM ammonium acetate with 0.100 FA as the aqueous mobile phase, and methanol as the organic mobile phase.
Half-Life Mouse Microsomes:
Compounds were evaluated in mouse liver microsomes following a similar procedure as described above for human liver microsomes. A similar procedure could be used to evaluate compounds in rat liver microsomes.

SREBP = experiment: Reporter Screening Assay (SRE-luciferase reporter, HepG2); type: cell-based; conditions: Homo sapiens; SRE-luciferase reporter HepG2 cells, 24 hours, 0.01 uM to 10 uM; read-out: I: Reporter Screening Assay (Ave EC50 (nM))
Procedure: Reporter Screening Assay: This assay was used to evaluate the effect on transcriptional activity SREBP of selected compounds using an SRE-luciferase reporter construct. On day 1, 10,000 cells were seeded in a 96 well (white) plate as per the plate map in Growth media without antibiotics. Cells were incubated at 37° C. for 8 hours. After 8 hours, cells were washed with DPBS for complete removal of FBS. DPBS was completely removed and Growth media was replaced with phenol free treatment medium (90 μl) with different FBS concentrations. The cells were then incubated at 37° C. for 24 hours with varying doses (0.01 uM to 10 uM) of compounds. Then a Luciferase assay was performed.
Reagents for performing Luciferase assay were stored at −20° C. To a tube of lyophilized assay substrate was added 1 mL Substrate Solvent and mixed well. The Substrate tube after reconstitution was covered with aluminum foil so as to keep it protected from light. The assay buffer was thawed to room temperature. To 20 mL Assay Buffer was added 200 μL of reconstituted 100× Substrate and mixed well. The reconstituted substrate as well as the assay solution (buffer+substrate) was protected from light throughout the procedure by keeping it covered with aluminum foil. Using a multi-channel pipette, 100 μL Assay Solution (buffer+substrate) was added directly to each sample well in Plate 1, which was incubated for 30 min (plate was covered with aluminum foil). After 30 min incubation, the plate was read for total luminescence. Each well was read for 2 seconds in a plate luminometer. (Microplate reader Envision Microplate reader from Perkin Elmer). Precaution was taken to incubate plate exactly for 30 min prior to reading on the plate reader.
SREBPv1 Reporter cell line: HepG2—#32251. Growth Medium: MEM (Corning 10-010), 10% FBS, 1% GlutaMax (Invitrogen Catalog #35050061), […] (Invitrogen Catalog # A1113803) and 1% Penicillin-Streptomycin (Pen-Strep). Treatment Media: Phenol-free MEM (Invitrogen Catalog #51200-038) and 1% GlutaMax (Invitrogen Catalog #35050061). Luciferase Assay: LightSwitch Luciferase Assay Kit (Catalog #32032). LDH assay: Pierce LDH Cytotoxicity Assay Kit (Catalog # SD249616).

[2] = Stability in human liver microsomes; type: in vitro ADME; conditions: 37° C., NADPH
Procedure: Half-Life Human Microsomes:
as §1

percent parent remaining after 60 min in liver microsomes [1]	EC50 (SREBP)	percent of compound remaining after 60 min in human liver microsomes [2]	Compound
+++ (>60.1 = +++)	< 249 nM	+++ (>60.1 = +++)	CC(C)OC(=O)Nc1ccc(-c2cc(-c3ccnc(C4(CO)CC4)c3)cs2)c(Cl)c1 [Compound I-8980, Isopropyl (3-chloro-4-(4-(2-(1-(hydroxymethyl)cyclopropyl)pyridin-4-yl)thiophen-2-yl)phenyl)carbamate]
+++ (>60.1 = +++)	250 to 500 nM	++ (30.1-60 = ++)	CC(C)S(=O)(=O)c1ccc(-c2cc(-c3ccnc(C(C)(C)C)c3)cs2)cc1 [Compound I-8728, 2-(tert-butyl)-4-(5-(4-(isopropylsulfonyl)phenyl)thiophen-3-yl)pyridine]
+++ (>60.1 = +++)	> 500 nM	+++ (>60.1 = +++)	CC(C)(O)c1cc(-c2csc(-c3ccc(NC(=O)OC4CC4)cc3Cl)c2)ccn1 [Compound I-9065, cyclopropyl (3-chloro-4-(4-(2-(2-hydroxypropan-2-yl)pyridin-4-yl)thiophen-2-yl)phenyl)carbamate]
+++ (>60.1 = +++)	< 249 nM	+++ (>60.1 = +++)	CC(C)OC(=O)Nc1ccc(-c2cc(-c3ccnc(C4CC4)c3)cs2)c(Cl)c1 [Compound I-8966, Isopropyl (3-chloro-4-(4-(2-cyclopropylpyridin-4-yl)thiophen-2-yl)phenyl)carbamate]
+++ (>60.1 = +++)	> 500 nM	+++ (>60.1 = +++)	CC(C)(CN)c1cc(-c2csc(-c3ccc(NS(C)(=O)=O)cc3Cl)c2)ccn1 [Compound I-9049, N-(4-(4-(2-(1-amino-2-methylpropan-2-yl)pyridin-4-yl)thiophen-2-yl)-3-chlorophenyl)methanesulfonamide]
+++ (>60.1 = +++)	> 500 nM	+++ (>60.1 = +++)	CS(=O)(=O)Nc1ccc(-c2cc(-c3ccnc(O[C@@H]4COC[C@@H]4O)c3)cs2)c(Cl)c1 [Compound I-9108, N-(3-chloro-4-(4-(2-(((3R,4S)-4-hydroxytetrahydrofuran-3-yl)oxy)pyridin-4-yl)thiophen-2-yl)phenyl)methanesulfonamide]
+++ (>60.1 = +++)	< 249 nM	+++ (>60.1 = +++)	CS(=O)(=O)Nc1ccc(-c2cc(-c3ccnc(C4(CO)CC4)c3)cs2)c(Cl)c1 [Compound I-9002, N-(3-chloro-4-(4-(2-(1-(hydroxymethyl)cyclopropyl)pyridin-4-yl)thiophen-2-yl)phenyl)methanesulfonamide]
